Series [1] is classed as in vitro ADME, mouse. As for the experimental part:
Stability was determined for both the In-111 and Lu-177 labelled compounds by mixing 20 µl of radiolabelled sample (approx. 5 MBq) with 80 µl phosphate buffered saline (PBS) (0.01 M, pH 7.4), or mixing 70 µl of radiolabelled sample (approx. 20 MBq) with 330 µl of mouse serum, and heating at 37°C for up to 24 h. After incubation, 50 µl of the mouse serum solution is added to a separate vial containing acetonitrile (50 µl) and the sample is centrifuged for 20 min. The supernatant and precipitate are separated, and the activity is measured to determine the binding to serum proteins. The supernatant is then analysed by radio-HPLC. The PBS solution is loaded directly onto the radio-HPLC.

The conditions of series [2]: in vivo; cited from earlier work. The source says: In this study, we synthesized PSMA-targeted radiopharmaceuticals that combined an albumin binder and a cleavable linker to optimize their therapeutic efficacy. We selected the albumin-binder containing PSMA-617 derivative HTK01169 (figure 1), reported by Kuo et al., as a reference. [^177Lu]Lu-HTK01169 delivers an eightfold higher dose to the tumour than [^177Lu]Lu-PSMA-617, but also a 17-fold higher dose to the kidneys. The amino acid sequences Gly-Tyr-Lys (GYK) and Met-Val-Lys (MVK) were selected as the cleavable linkers. Effective cleavage of the MVK sequence in ^67/68Ga-labell ... || The purpose of this study is to report the synthesis and radiolabelling of new PSMA derivatives containing: (i) a PSMA-targeting vector, (ii) an albumin binder, namely 4-(p-iodophenyl)butyric acid, (iii) an amino acid sequence which could be specifically recognized and cleaved by renal brush border (RBB) enzymes, and (iv) a DOTA chelator which can be labelled with In-111 for imaging or Lu-177 for therapy. Previous studies reported that presence of an albumin-binding moiety increases blood residence time of the radiopharmaceutical agent, and ultimately leads to a higher accumulation of the PSMA ...

The test system of series [3] is renal brush border enzymes. The following applies: labelled with gallium-68; cited from earlier work. The source says:
We hypothesized that this radiolabelled impurity might come from the radiation-induced oxidation of the methionine residue of the cleavable linker. Bendre et al. recently synthesized DOTA-AmBz-M(O)VK(HTK01166)-OH, the oxidized analogue of the PSMA-targeted derivative DOTA-AmBz-MVK(HTK01166)-OH, and performed labelling with gallium-68. They observed that the oxidized product was not cleaved by the renal brush border enzymes. It confirms that oxidation of the methionine is undesirable, as it leads to loss of enzyme recognition and consequently less cleavage of the conjugate. This radiolys ...

Series [4] has as its system renal brush border (RBB) enzymes. The note with it: Cy5 labelled model peptide; cited from earlier work. An excerpt:
High kidney uptake of radiopharmaceuticals can usually be explained by the long residence time of radiometabolites generated after lysosomal proteolysis. This process is followed by glomerular filtration and reabsorption of the radiometabolites in renal cells. By inserting a linker which is specifically cleaved by enzymes on the brush border membrane located in the lumen of the proximal renal tubule, the radiometal-chelator moiety can be rapidly excreted via the bladder while the peptide remains in the kidneys. The MVK sequence was initially conjugated to antibody fragments by Uehara et ...

Series [5] deals with metastatic castration-resistant prostate cancer. The following applies: cited from earlier work. The source says:
The prostate-specific membrane antigen (PSMA) is overexpressed in prostate cancer cells, and its expression increases with disease progression. PSMA is therefore an attractive target for TRT of prostate cancer. Currently, several compounds targeting this protein are being investigated for imaging and treatment of prostate cancer, with PSMA-617 advancing as a lead candidate (figure 1).

For series [6] the following is noted: in vivo; cited from earlier work. An excerpt:
The purpose of this study is to report the synthesis and radiolabelling of new PSMA derivatives containing: (i) a PSMA-targeting vector, (ii) an albumin binder, namely 4-(p-iodophenyl)butyric acid, (iii) an amino acid sequence which could be specifically recognized and cleaved by renal brush border (RBB) enzymes, and (iv) a DOTA chelator which can be labelled with In-111 for imaging or Lu-177 for therapy. Previous studies reported that presence of an albumin-binding moiety increases blood residence time of the radiopharmaceutical agent, and ultimately leads to a higher accumulation of the PSMA ...
This is another data set of the same source.

Setting [7] is: plus standard of care, versus standard of care, ref NCT03511664.

Here are results for six compounds from publication PMC9993039, “Synthesis and radiolabelling of PSMA-targeted derivatives containing GYK/MVK cleavable linkers” (Royal Society Open Science, 2023).

Take `N[C@@H](CCCCNC(=O)CN1CCN(CC(=O)O)CCN(CC(=O)O)CCN(CC(=O)O)CC1)C(=O)N[C@@H](Cc1ccc(O)cc1)C(=O)NCC(=O)NCCCC[C@H](NC(=O)[C@H](CCC(=O)O)NC(=O)CCCc1ccc(I)cc1)C(=O)NC[C@H]1CC[C@H](C(=O)N[C@@H](Cc2ccc3ccccc3c2)C(=O)NCCCC[C@H](NC(=O)N[C@@H](CCC(=O)O)C(=O)O)C(=O)O)CC1` [[^111In]-7] [metal not drawn]: the “peak at 2.9 min (radiolabelled side-product) in mouse serum” value in series [1] is 62%.

Regarding `O=C(O)CC[C@H](NC(=O)N[C@@H](CCCCNC(=O)[C@H](Cc1ccc2ccccc2c1)NC(=O)[C@H]1CC[C@H](CNC(=O)[C@H](CCCCNC(=O)CN2CCN(CC(=O)O)CCN(CC(=O)O)CCN(CC(=O)O)CC2)NC(=O)[C@H](CCC(=O)O)NC(=O)CCCc2ccc(I)cc2)CC1)C(=O)O)C(=O)O` [[^177Lu]Lu-HTK01169, metal not drawn], in series [2], the “radiation dose to the kidneys relative to [177Lu]Lu-PSMA-617” value was 17 fold and the “radiation dose to the tumour relative to [177Lu]Lu-PSMA-617” value was “eightfold”.

DOTA-AmBz-M(O)VK(HTK01166)-OH: the “cleavage by renal brush border enzymes” value in series [3] is given as “not cleaved”.

Take “H-GGGFK(Cy5)-NH2 [Cy5 labelled model peptide with GFK linker]”: the “cleavage on incubation with RBB enzymes” value in series [4] is listed as 82%.

On to “H-GGGYK(Cy5)-NH2 [Cy5 labelled model peptide with GYK linker]”, for which, in series [4], the “cleavage on incubation with RBB enzymes” value was “quantitative cleavage”.

For the compound [^177Lu]Lu-PSMA-617, the “patients who do not respond significantly to the treatment” value in series [5] is “approximately 30%”. Further, the “incidence of adverse effects (grade 3 or 4)” value in series [5] (human, in vivo) is listed as 52.7%. Besides, the response rates entry in series [5] (patients) is listed as “over 50%”. In series [5] (setting [7]), the “imaging-based progression free survival (median)” value is 8.7 months and the “overall survival (median)” value is listed as 15.3 months. In series [6], the “uptake in the kidneys at 1 h” value is recorded as “approximately 10 % IA g^−1” and the “uptake in the kidneys at 24 h” value was “less than 1 % IA g^−1”.
